Measured values: ChEMBL document CHEMBL1142772, “Discovery and SAR of biaryl piperidine MCH1 receptor antagonists through solid-phase encoded combinatorial synthesis” (Bioorg Med Chem Lett, 2005)

Test: Area under curve (time =0-6 hours)
Format: ADME
Parameters: time < 6 hr
Settings: rat

Q: With `CN1CCC(CNC(=O)Nc2cc(Cl)cc(Cl)c2)(c2ccc(-c3cccnc3)cc2)CC1` as the compound, how does the AUC read?
A: The AUC was 1.4 µM.
